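Protocol summary: plate cells (96-well), add compound at 5 concentrations, incubate 48 h, interpolate endpoints linearly. GI50 = concentration required for 50% inhibition of growth.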 Calls of active or inactive are those of the source. No stated cut-off is given here; in the data, active = GI50 up to about 1.1 µM and inactive = higher.
Tests used:
Test in all cases: NCI anticancer screen, dose series, 48 h
[1] = system: OVCAR-4
[2] = system: HOP-62
[3] = system: UACC-257
[4] = system: DMS-114
[5] = system: A549
[6] = system: CAKI-1
[7] = system: HCC 2998
[8] = system: UACC-62
[9] = system: KM12
[10] = system: A498
[11] = system: HCT-116
[12] = system: SW-620
[13] = system: NCI-H460
[14] = system: OVCAR-5
[15] = system: 786-0
[16] = system: RPMI-8226
[17] = system: SK-MEL-2
[18] = system: SF-539
[19] = system: UO-31
[20] = system: SNB-78
[21] = system: SNB-75
[22] = system: NCI-H226
[23] = system: EKVX
[24] = system: M19-MEL
[25] = system: DLD-1
[26] = system: DMS-273
[27] = system: Malme-3M
[28] = system: OVCAR-8
[29] = system: LXFL 529
[30] = system: SK-MEL-28
[31] = system: SK-OV-3
[32] = system: TK-10
[33] = system: M14
[34] = system: SK-MEL-5
[35] = system: U-251
[36] = system: NCI-H23
[37] = system: KM-20L2
[38] = system: CCRF-CEM
[39] = system: OVCAR-3
[40] = system: HCT-15
[41] = system: SF-295
[42] = system: HL-60
[43] = system: IGROV-1
[44] = system: LOX IMVI
[45] = system: RXF 393
[46] = system: HT-29
[47] = system: K562
[48] = system: SF-268
[49] = system: SNB-19
[50] = system: COLO 205
[51] = system: MOLT-4
[52] = system: NCI-H522
[53] = system: HOP-18
[54] = system: ACHN
[55] = system: SR
[56] = system: SN12C
[57] = system: HOP-92
[58] = system: MDA-MB-435
[59] = system: Hs-578T
[60] = system: T47D
[61] = system: MDA-MB-231
[62] = system: PC-3
[63] = system: NCI/ADR-RES
[64] = system: MDA-N
[65] = system: MCF7
[66] = system: BT-549
[67] = system: DU-145

Measured: GI50

CCO/C([O-])=C(\C(=O)c1ccccc1)[n+]1c(C)n(C)c2ccccc21
> 100 µM: [40]
inactive: [1] > 100 µM | [2] > 100 µM | [3] > 100 µM | [4] > 100 µM | [5] > 100 µM | [6] > 100 µM | [7] > 100 µM | [8] > 100 µM | [9] > 100 µM | [10] > 100 µM | [11] > 100 µM | [12] > 100 µM | [13] > 100 µM | [14] > 100 µM | [15] > 100 µM | [16] > 100 µM | [17] > 100 µM | [18] > 100 µM | [19] > 100 µM | [20] > 100 µM | [21] > 100 µM | [22] > 100 µM | [23] > 100 µM | [24] > 100 µM | [25] > 100 µM | [26] > 100 µM | [27] > 100 µM | [28] > 100 µM | [29] > 100 µM | [30] > 100 µM | [31] > 100 µM | [32] > 100 µM | [33] > 100 µM | [34] > 100 µM | [35] > 100 µM | [36] > 100 µM | [37] > 100 µM | [38] > 100 µM | [39] > 100 µM | [41] > 100 µM | [42] > 100 µM | [43] > 100 µM | [44] > 100 µM | [45] > 100 µM | [46] > 100 µM | [47] > 100 µM | [48] > 100 µM | [49] > 100 µM | [50] > 100 µM | [51] > 100 µM | [52] > 100 µM | [53] > 100 µM

COC(=O)c1ccc(Cl)cc1NC(=O)C1CCCCC1
> 100 µM: [40]
inactive: [1] > 100 µM | [3] > 100 µM | [4] > 100 µM | [5] > 100 µM | [54] > 100 µM | [6] > 100 µM | [7] > 100 µM | [9] > 100 µM | [11] > 100 µM | [12] > 100 µM | [55] > 100 µM | [14] > 100 µM | [15] > 100 µM | [16] > 100 µM | [17] > 100 µM | [18] > 100 µM | [19] 3.53 µM | [20] > 100 µM | [22] > 100 µM | [23] > 100 µM | [24] > 100 µM | [26] > 100 µM | [27] > 100 µM | [28] > 100 µM | [29] > 100 µM | [30] > 100 µM | [56] > 100 µM | [32] 40 µM | [35] > 100 µM | [36] > 100 µM | [37] > 100 µM | [57] > 100 µM | [39] > 100 µM | [41] > 100 µM | [45] 20.3 µM | [46] > 100 µM | [47] > 100 µM | [48] > 100 µM | [49] > 100 µM | [50] > 100 µM | [51] > 100 µM | [52] > 100 µM

COc1ccc(C[C@H](N)C(=O)N2C[C@H](CO)C[C@H](n3ccc(=O)[nH]c3=O)C2)cc1
inactive: [1] > 100 µM | [2] > 100 µM | [4] > 100 µM | [5] > 100 µM | [54] > 100 µM | [6] > 100 µM | [7] > 100 µM | [8] > 100 µM | [9] > 100 µM | [11] > 100 µM | [12] > 100 µM | [55] > 100 µM | [13] > 100 µM | [14] > 100 µM | [16] > 100 µM | [17] > 100 µM | [18] > 100 µM | [19] > 100 µM | [22] > 100 µM | [23] > 100 µM | [24] > 100 µM | [25] > 100 µM | [26] > 100 µM | [27] > 100 µM | [28] > 100 µM | [29] > 100 µM | [30] > 100 µM | [31] > 100 µM | [56] > 100 µM | [32] > 100 µM | [33] > 100 µM | [34] > 100 µM | [35] > 100 µM | [36] > 100 µM | [37] > 100 µM | [38] > 100 µM | [57] > 100 µM | [39] > 100 µM | [42] 58.3 µM | [43] > 100 µM | [44] > 100 µM | [45] > 100 µM | [46] > 100 µM | [47] > 100 µM | [48] > 100 µM | [49] > 100 µM | [50] > 100 µM | [51] > 100 µM | [52] > 100 µM | [53] > 100 µM
> 100 µM: [40]

O=P1(NCCCl)OCCC(OO)N1CCCl (stereo not given)
inactive: [58] 56.1 µM | [1] 20.5 µM | [2] 52.4 µM | [59] 50.4 µM | [3] 32.1 µM | [4] 31.6 µM | [5] > 71.9 µM | [54] 14.4 µM | [6] 18.3 µM | [7] > 100 µM | [8] 21.1 µM | [9] > 100 µM | [11] 15.8 µM | [12] 15.7 µM | [55] > 100 µM | [13] 37.8 µM | [14] 42.9 µM | [15] 26.1 µM | [16] 7.03 µM | [17] 37.7 µM | [18] 16.9 µM | [19] > 64.3 µM | [20] 34.2 µM | [21] 32.7 µM | [22] > 100 µM | [23] > 100 µM | [24] 34.8 µM | [25] 21.2 µM | [26] 47.3 µM | [27] 17.3 µM | [28] 46.1 µM | [30] 18.9 µM | [61] > 100 µM | [62] 68.5 µM | [63] 28.7 µM | [31] > 94 µM | [64] 29.3 µM | [65] 24.9 µM | [66] 39.5 µM | [56] 37.4 µM | [32] 20 µM | [33] 21.9 µM | [34] 93.5 µM | [35] 32.4 µM | [36] 28.4 µM | [37] > 100 µM | [38] 9.44 µM | [57] 16.8 µM | [39] 23.2 µM | [67] 54 µM | [41] 1.72 µM | [42] 6.82 µM | [43] > 100 µM | [44] 1.82 µM | [45] 17.8 µM | [46] 36.6 µM | [47] 19.4 µM | [48] 35.2 µM | [49] > 52 µM | [50] 33.1 µM | [51] > 36.9 µM | [52] 11.5 µM | [53] 39.9 µM
18 µM: [40]
active: [60] 0.316 µM

COc1c2c(c(OC)c3c(=O)cc(C/C(=N/NC(=O)C[n+]4ccccc4)C(=O)Nc4cc(C)ccc4C)oc13)OCO2
inactive: [1] > 100 µM | [2] > 100 µM | [3] > 100 µM | [4] > 100 µM | [5] > 100 µM | [54] > 100 µM | [6] > 100 µM | [7] > 100 µM | [8] > 100 µM | [9] > 100 µM | [10] > 100 µM | [11] > 100 µM | [12] > 100 µM | [13] > 100 µM | [14] > 100 µM | [15] > 100 µM | [16] > 100 µM | [17] > 100 µM | [18] > 100 µM | [19] > 100 µM | [20] > 100 µM | [21] > 100 µM | [23] > 100 µM | [24] > 100 µM | [25] > 100 µM | [26] > 100 µM | [27] > 100 µM | [28] > 100 µM | [29] > 100 µM | [30] > 100 µM | [31] > 100 µM | [56] > 100 µM | [32] > 100 µM | [33] > 100 µM | [34] > 100 µM | [35] > 100 µM | [36] > 100 µM | [37] > 100 µM | [38] > 100 µM | [57] > 100 µM | [39] > 100 µM | [42] > 100 µM | [43] > 100 µM | [44] > 100 µM | [45] > 100 µM | [46] > 100 µM | [47] > 100 µM | [48] > 100 µM | [49] > 100 µM | [50] > 100 µM | [51] > 100 µM | [52] > 100 µM
> 100 µM: [40]
